# What was measured:
# [1] = Effect on plasma phosphate level in normal rats (SMCC series); type: in vivo, rat; conditions: 20 IU sCT/kg equivalent, subcutaneous
# Method: (§1) Pharmacodynamic response of sCT analogue was evaluated by analyzing plasma calcium concentration in the rat model. Sprague Dawley female rats weighing 230-260 g (about 6 weeks old) were purchased from Charles River, USA and housed at the University of Alberta Animal Holding Unit. All experimental protocols were approved by the Animals Ethics Committee of the University of Alberta. The rats were divided randomly into five groups of 3 animals each and the pharmacodynamic response was assessed following subcutaneous administration of the sCT or analogue equivalent to 20 IU sCT/kg body weight. Rats were anesthetized using Isoflurane inhalation anesthesia and the 200 μl blood samples were obtained in heparinized Eppendorf microtubes before drug injection. Then 100 μl of sCT or equivalent dose in 20 mM Sodium Acetate buffer pH 5 was sub cu injected and the blood samples were collected 1, 2, 3 and 4 hrs post injection from jugular vein. Blood plasma was obtained by centrifuging the samples at 5000 rpm for 10 min and collecting the supernatant. Plasma calcium level was assayed by QuantiChrom™ Calcium Assay Kit (BioAssay Systems, CA USA) and the plasma phosphate level was assayed by QuantiChrom™ Phosphate Assay Kit (BioAssay Systems, CA USA).
# [2] = Effect on plasma calcium level in normal rats (SMCC series); type: in vivo, rat; conditions: 20 IU sCT/kg equivalent, subcutaneous
# Method: as §1
# [3] = Circular dichroism, secondary structure of sCT, sCT-SMCC and sCT-BP; type: physicochemical; conditions: 20 mM acetate buffer pH 5.0, 400 μg/mL sCT or equivalent
# Method: For a more detailed analysis of the influence of BP coupling on secondary structural confirmation of sCT, the circular dichroism (CD) spectrum of sCT, sCT-SMCC and sCT-BP was measured in the 20 mM acetate buffer pH 5.0. CD spectra were obtained with a ConvCD spectrophotometer instrument. Spectra were acquired over a wavelength range of 190 to 260 nm. The N2 flow rate was set at 5 l/min. The sample cuvette was cleaned with 20 mM Sodium Acetate buffer pH 5, and the spectra of test samples, which comprised of 400 μg/mL of sCT or equivalent the same buffer, were recorded with the corresponding buffer serving as blanks.
# [4] = first hour, vs acetate buffer controls
Substance,percentage of plasma phosphate reduction ([1]; 4 hour post dosing) [%],"percentage of plasma phosphate reduction [1, 4] [%]",percentage of plasma phosphate reduction ([1]; second hour) [%],percentage of plasma calcium reduction ([2]; 4 hour post dosing) [%],"percentage of plasma calcium reduction [2, 4] [%]",percentage of plasma calcium reduction ([2]; second hour) [%],percentage of plasma calcium reduction ([2]; third hour) [%],secondary structure by CD spectrum [3]
sCT-BP: sCT-SMCC coupled with Thiol-BP (thiol bisphosphonate); mixture of sCT-2SMCC-1BP to sCT-3SMCC-3BP,8.54±5.11,7.65±4.73,12.47±5.09,27.36±2.28,13.45±1.64,12.47±5.09,26.62±5.28,strong 6-helical character
"sCT-SMCC: sCT reacted with sulfo-SMCC: mono-, di- and tri-substituted thiol reactive sCT intermediates",10.4±0.54,9.18±1.87,12.18±2.03,28.05±2.08,15.27±2.35,19.43±2.32,24.48±2.83,increased peak intensity at 222 nm

# Source: patent US8772235B2, “Compounds having peptides conjugated to bone targeting moieties and methods of making and using thereof” (The Governors of the University of Alberta, priority 2009, dated 2014)
